Laboratory results reported in patent publication US20110250133A1, “GASTRIN […] PEPTIDE COMPOUNDS” (priority 2003, published 2011).

Experiments:
NMB-R = target: T1, NMB-R (Rattus norvegicus, UniProt P24053); test: Competition with 125I-NMB for NMB-R in C6 cells (linker specificity); type: binding, rodent; conditions: for receptor subtype preference (GRP-R vs NMB-R): from IC50 with 125I-NMB (C6) and 125I-BBN (PC3), cut off 10x the IC50 of [Tyr4]-BBN;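 on all read-outs here: test cells: rodent glioblastoma C6 line carrying NMB-R, human prostate cancer PC3 line carrying GRP-R, affinity fitted by one-site competition nonlinear regression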
T1 construct: C6, an NMB-R expressing rodent glioblastoma cell line; host or cells: C6 glioblastoma cells, intact adherent cells
T1 sequence (P24053 1-390): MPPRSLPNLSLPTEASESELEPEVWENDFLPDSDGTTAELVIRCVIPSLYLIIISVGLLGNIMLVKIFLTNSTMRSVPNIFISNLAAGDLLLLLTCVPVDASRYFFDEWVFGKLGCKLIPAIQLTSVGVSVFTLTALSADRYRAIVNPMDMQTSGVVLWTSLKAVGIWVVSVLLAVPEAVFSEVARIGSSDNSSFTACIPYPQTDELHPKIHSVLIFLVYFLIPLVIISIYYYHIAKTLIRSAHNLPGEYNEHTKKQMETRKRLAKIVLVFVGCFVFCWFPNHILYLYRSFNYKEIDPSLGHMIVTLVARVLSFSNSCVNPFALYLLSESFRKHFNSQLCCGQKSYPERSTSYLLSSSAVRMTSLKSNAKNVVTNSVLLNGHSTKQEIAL
Protocol: Two cell lines, C6, an NMB-R expressing rodent glioblastoma cell line and PC3, a GRP-R expressing human prostate cancer cell line, were used in this assay. The affinity of various unlabeled compounds for each receptor subtype (NMB-R and GRP-R) was determined indirectly by measuring its ability to compete with the binding of ^125I-NMB or ^125I-BBN to its corresponding receptors in C6 and PC3 cells.
Cells for the assays were plated at a concentration of 9.6×10^4/well in 48 well poly-lysine coated plates (Beckton Dickinson Biocoat). PC3 were obtained from ATCC(CRL-1435) and cultured in RPMI 1640 (ATCC) supplemented with 2 mM L-glutamine, 1.5 g/L Sodium bicarbonate, 10 mM HEPES and 10% FBS. […] PC3 cells for the assays were plated at a concentration of 2.0×10^4 cells/well in 96-well white/clear bottom plates (Falcon Optilux-I). Plates were used for the assays on day 2 of the post-plating.
RPMI 1640 (ATCC) containing 25 mM HEPES, 0.2% BSA fraction V, 1.0 mM AEBSF (CAS # 3087-99-7) and 0.1% Bacitracin (CAS # 1405-87-4), pH 7.4. Custom made ^125I-[Tyr^0]NMB, >2.0 Ci/μmole (Amersham Life Science) [^125I-NMB] and commercially available ^125I-[Tyr^4]BBN, >2.0 Ci/μmole (Perkin Elmer Life Science) [^125I-BBN] were used as radioligands.
Using a 48-well plate assay system (for C6 study) competition experiments were performed using ^125I-NMB. […] Selection of compounds for the assay was based on linker subtype.
The binding parameters obtained from the studies were analyzed using a one-site competition non-linear regression analysis with GraphPad Prism. The relative affinity of various compounds for NMB-R in C6 cells were compared with those obtained using commercially available [Tyr^4]-BBN and [Tyr^0]-NMB. To distinguish the GRP-R preferring compounds from NMB-R plus GRP-R preferring compounds, IC50 values obtained for each compound were compared with those obtained from [Tyr^4-BBN with ^125I-NMB on C6 cells.

[1] = tested on: T47D human breast cancer cells; test: Effect of drug treatment on GRP receptor binding (177Lu-AMBA) in T47D cells; type: cell-based; conditions: for increase in 177Lu-AMBA binding (GRP receptor specific signal per cell): drug 0.1-1.0 μM (gefitinib 0.1-10 μM)
From the text: T-47D breast cancer cells (human metastatic mammary gland ductal adenocarcinoma isolated from pleural effusion, ER+, PR+) were obtained from the American Type Culture Collection.

[2] = tested on: PC-3 prostate cancer cells; test: Effect of drug treatment on GRP receptor binding (177Lu-AMBA) in PC-3 cells; type: cell-based, human; conditions: for decrease in 177Lu-AMBA binding (GRP receptor specific signal per cell): relative to untreated control, drug 0.1-1.0 μM (gefitinib 0.1-10 μM)
Protocol: (§1) RPMI 1640 supplemented with 20 mM HEPES, 0.1% BSA (w/v), 0.5 mM PMSF (AEBSF), bacitracin (50 mg/500 ml), pH 7.4.
(§2) Incubations were stopped by the addition of 200 μL of ice-cold binding buffer. Plates were washed three more times with binding buffer, 140 μL of scintillation fluid was added to each well, the plates were sealed and analyzed on a Microβ plate reader (Microbeta Trilux, Perkin-Elmer).
PC-3 (human prostate adenocarcinoma, bone metastasis, AR-, ER) were obtained from the American Type Culture Collection. The growth medium for PC-3 cells is RPMI 1640 (10-041-CM, Mediatech, Inc), supplemented with 10% heat inactivated FBS (Hyclone, SH30070.03) and PSF-1× (as in Example LXVI). The binding buffer, lapatinib solutions, treatment method and cell binding assay is the same as in Example LXVI.

[3] = tested on: BT-474 human breast cancer cells; test: Effect of drug treatment on GRP receptor binding (177Lu-AMBA) in BT-474 cells; type: cell-based
Protocol: BT-474 breast cancer cells (human primary invasive ductal carcinoma; ER+, PR+, amplified HER2/neu+) were obtained from the American Type Culture Collection. The growth medium for BT-474 cells is Hybri-care Medium (Cat No: 46X, ATCC) supplemented with 10% heat inactivated FBS (Hyclone, SH30070.03), 0.2% NaHCO3, and antibiotic/antimycotic “PSF-1×” (GibcoBRL, 15240-062) for a final concentration of penicillin-streptomycin (1×, 100 units/mL), and fungizone (0.25 μg/mL). […] Cells for binding experiments were plated on Day 0 at 5.6×10^4 cells/cm^2 in 96-well white/clear bottom microtiter plates (Falcon Optilux-I), or 96 well black/clear collagen I cellware plates (Beckton Dickinson Biocoat).
as §1, §2
Treatment: BT-474 cells were plated on Day 0 and treated on Days 1 and 2 (DT1, DT2).

[4] = yes / —, cut off 10x the IC50 of [Tyr4]-BBN with 125I-NMB on C6 cells
[5] = T-47D, relative to untreated control

Q: “N-[(3β,5β,12α)-3-[[[4,7,10-Tris(carboxymethyl)-1,4,7,10-tetraazacyclododec-1-yl]acetyl]amino]-glycyl-4-aminobenzoyl-L-leucyl-L-tryptophyl-L-alanyl-L-threonyll-glycyl-L-histidyl-L-phenylalanyl-L-methioninamide [Compound L227]” was tested. Which “receptor subtype preference (GRP-R vs NMB-R)” value (NMB-R) did it give?
A: Its value is “affinity to GRP-R in addition to its inherent NMB-R affinity”.

Q: Which “receptor subtype preference (GRP-R vs NMB-R)” value (NMB-R) does the source give for DO3A-monoamide-Nal1-Bip-QWAVGHLM-NH2 here?
A: Its value is “selective affinity towards GRP-R”.

Q: And the “GRP-R (GRP-R preferring)” value (NMB-R; [4])?
A: The value was “yes”.

Q: For `CC/C(=C(\c1ccc(O)cc1)c1ccc(OCCN(C)C)cc1)c1ccccc1` [Compounds 4-OH-Tamoxifen], which “change in 177Lu-AMBA binding (GRP receptor specific signal per cell) vs untreated controls, T47D” value ([1]; Table 25, range 0.001-0.1 μM) is on record?
A: The value was −35%.

Q: What about the “change in 177Lu-AMBA binding (GRP receptor specific signal per cell) vs untreated controls, PC-3” value ([2]; Table 25, range 0.001-0.1 μM) of the same compound?
A: The value was 0%.

Q: And the “change in 177Lu-AMBA binding (GRP receptor specific signal per cell) vs untreated controls, BT-474” value ([3]; Table 25, range 0.001-0.1 μM)?
A: Its value is −73%.

Q: With DO3A-monoamide-Cha-Cha-QWAVGHLM-NH2 as the compound, how does the “receptor subtype preference (GRP-R vs NMB-R)” value (NMB-R) read?
A: The value was “selective affinity towards GRP-R”.

Q: What about the “GRP-R (GRP-R preferring)” value (NMB-R; [4]) of the same compound?
A: Its value is “yes”.

Q: Which “receptor subtype preference (GRP-R vs NMB-R)” value (NMB-R) does the source give for “Gln-Trp-Ala-Val-Gly-His-Leu-Met-NH2 [BBN7-14]” here?
A: Its value is “did not show any preference”.

Q: And the “receptor preference in words (GRP-R / GRP-R and NMB-R)” value (NMB-R; wrapped cell: 'No selective preference' or 'preference for NMB-R')?
A: Its value is “No selective”.

Q: With gefitinib as the compound, how does the “increase in 177Lu-AMBA binding (GRP receptor specific signal per cell)” value [1, 5] read?
A: Its value is “up to 20%”.

Q: What about the “decrease in 177Lu-AMBA binding (GRP receptor specific signal per cell)” value ([2]; PC-3) of the same compound?
A: Its value is 20-40%.

Q: And the “change in GRP receptor specific signal per cell (177Lu-AMBA binding)” value ([3]; BT-474, drug 0.1-1.0 μM (gefitinib 0.1-10 μM))?
A: Its value is “no change”.

Q: And the “change in 177Lu-AMBA uptake (GRP-R) on a viable cell basis, BT-474” value ([3]; drug 0.1-10 μM, ↑ increase, ↓ decrease vs untreated)?
A: The value was “NC (NC: Little(<10%) or no change in Lu-AMBA uptake)”.

Q: How did the “decrease in 177Lu-AMBA binding (GRP receptor specific signal per cell)” value ([1]; T-47D, relative to untreated control, drug 0.1-1.0 μM (4-OH Tamoxifen 0.001-0.1 μM)) turn out when bortezomib was run?
A: Its value is “up to 50%”.

Q: What about the “decrease in 177Lu-AMBA binding (GRP receptor specific signal per cell)” value ([2]; PC-3) of the same compound?
A: Its value is “up to 60%”.

Q: What about the “decrease in 177Lu-AMBA binding (GRP receptor specific signal per cell)” value ([3]; BT-474, relative to untreated control, drug 0.1-1.0 μM (4-OH Tamoxifen 0.001-0.1 μM)) of the same compound?
A: Its value is “up to 50%”.

Q: Which “receptor subtype preference (GRP-R vs NMB-R)” value (NMB-R) does the source give for “N-[4-[[[[4,7,10-Tris(carboxymethyl)-1,4,7,10-tetraazacyclododec-1-yl]acetyl]glycyl]amino]-3-methoxybenzoyl]-L-glutaminyl-L-tryptophyl-1-alanyl-L-valyl-glycyl-L-histidyl-L-leucyl-L-methioninamide [Compound L240]” here?
A: The value was “selective affinity to GRP-R”.

Q: For lapatinib, which “decrease in cell proliferation” value ([1]; T-47D, highest concentration) is on record?
A: Its value is at most 35%.

Q: What about the “increase in 177Lu-AMBA binding (GRP receptor specific signal per cell)” value [1, 5] of the same compound?
A: The value was “up to 50%”.

Q: What about the change in proliferation ([2]; PC-3, 0.1-1.0 μM) of the same compound?
A: Its change in proliferation is “no change”.

Q: And the “change in GRP receptor specific signal per cell (177Lu-AMBA binding)” value ([2]; PC-3, drug 0.1-1.0 μM (4-OH Tamoxifen 0.001-0.1 μM))?
A: Its value is “no change”.

Q: What about the “change in 177Lu-AMBA uptake (GRP-R) on a viable cell basis, PC-3” value ([2]; drug 0.1-1.0 μM, ↑ increase, ↓ decrease vs untreated) of the same compound?
A: Its value is “NC (NC: Little(<10%) or no change in Lu-AMBA uptake)”.

Q: What about the “decrease in cell proliferation” value ([3]; BT-474, highest concentration) of the same compound?
A: Its value is at most 65%.

Q: What about the “increase in 177Lu-AMBA binding (GRP receptor specific signal per cell)” value ([3]; BT-474, relative to untreated control, drug 0.1-1.0 μM (β2-estradiol 1 nM)) of the same compound?
A: Its value is “up to 140%”.

Q: How did the “receptor subtype preference (GRP-R vs NMB-R)” value (NMB-R) turn out when DO3A-monoamide-Abu4-QWAVGHLM-NH2 was run?
A: Its value is “dual affinity for both GRP-R and NMB-R”.

Q: What about the “GRP-R and NMB-R (binds both)” value (NMB-R; [4]) of the same compound?
A: Its value is “yes”.
